Entries after “also recorded” stand apart in the source; their conditions may differ. *1 amine or outer side, *2 acyl side, *3 side chain or, on linkers, in order; H or OH if unused. Where no end group is shown, it is not given here. [ ]: non-standard residue; d: D form. γGlu = O=C(O)[C@H](CCC(=O)[*:2])N[*:1]
Key:
gastric mucosal D cells = assay: Somatostatin secretion of cultured fractionated gastric mucosal D cells (somatostatin ELISA); assay type: cell-based, male SD rat; conditions: 90 minutes culture
Method: The abdomen of each male SD rat was opened in the midline under anesthesia to remove the stomach. The stomach was ligated at the cardiac region and at the junction between the gastric body and the pylorus, and the pyloric region was excised. After that, the stomach was everted so that the luminal side is exposed outside. To the inside of the stomach, Buffer A containing 2.5 mg/ml protease (Sigma P6911, Protease, From Streptomyces griseus, 5.5 unit/mg solid) was injected to prepare a balloon. The balloon was shaken at 37° C. for 30 minutes in Buffer A for 30 minutes and in Buffer B for 30 minutes×three times. After that, the balloon was stirred three times in Buffer B containing 0.5 mg/ml DNase, the detached cells were centrifuged and then suspended in Buffer C. After the cell suspension had been filtered with a filter, cells were fractionated and collected with an elutriator manufactured by Hitachi, Ltd.
Repeated fractionation was conducted using an elutriator in accordance with Example 3 to collect D cells with high purity. After centrifugation, the cells were suspended in a cell culture medium (D-MEM/F-12 containing 10% FBS) and cultured in a CO2 incubator ([…]+5% CO2, 37° C.) (6×10^5 cells/250 μL/well). After 2-day culture, to the D cells washed with PBS was added each of CaSR agonists (20 μM cinacalcet (CCT), 20 μM γ-EVG, 10 mM phenylalanine (Phe), and 10 mM histidine (His)) mixed in a culture buffer (122 mM NaCl, 5 mM KCl, 25 mM NaHCO3, 1.3 mM MgSO4, 2 mM CaCl2, 15 mM HEPES, and 20 mM glucose, pH 7.4), and the cells were cultured for 90 minutes. After that, a culture supernatant was collected, filtered with a filter, and then measured for its somatostatin concentration with a somatostatin ELISA kit (manufactured by Phoenix, Calif.).
The somatostatin secretion was measured in accordance with the method of Example 4. After 2-day culture, to the D cells washed with PBS was added a CaSR agonist (20 μM γ-EVG), sodium glutamate (60 mM MSG), or a mixed solution thereof, mixed in a culture buffer (122 mM NaCl, 5 mM KCl, 25 mM NaHCO3, 1.3 mM MgSO4, 2 mM CaCl2, 15 mM HEPES, and 20 mM glucose, pH 7.4), and the cells were cultured for 90 minutes. After that, the culture supernatant was collected, filtered with a filter, and then the somatostatin concentration was measured by a somatostatin ELISA kit (Phoenix, Calif.).

NSAID-induced enteritis = assay: NSAID (loxoprofen)-induced enteritis, damaged area in the small intestine; assay type: in vivo, rats; conditions: 30 minutes before loxoprofen 60 mg/kg oral, 24 hours
Method: To non-fasting rats, distilled water for injection containing cinacalcet (1, 3, 10, and 100 mg/kg) or γ-EVG (100 mg/kg), or distilled water for injection (control) was orally administered. After 30 minutes, loxoprofen (60 mg/kg) was orally administered, and the rats were left to stand for 24 hours. 1 ml of 1% (w/w) Evans Blue dye was intravenously administered, and after 30 minutes, the rats were euthanized under deep ether anesthesia. The small intestine (from the duodenum to the ileum) of each of the rats was removed, then immersed in 2% formalin for 10 minutes so that the small intestine might be fixed from the serosal side, and incised from the opposite side of the mesentery, and the damaged area in the small intestine (mm^2) was measured with a dissecting microscope of 10 times power. The t-test or Dunnett's test was used for a statistical test and p<0.05 was considered significant.

duodenum = assay: Bicarbonate secretion in the duodenum loop of anesthetized rats (pH-stat method); assay type: in vivo, male SD rats
Method: (§1) The bicarbonate secretion was evaluated in accordance with the methods of Aihara et al. (Aihara, E. et al. 2005. J. Pharmacol. Exp. Ther. 315: 423-432) and Kagawa et al. (Kagawa, S. et al. 2003. Digestive Diseases and Sciences 48: 1850-1856).
As for the bicarbonate secretion in the duodenum, the abdomen of each of male SD rats was opened under anesthesia, and a duodenum loop having a length of 1.7 cm from the pyloric ring of the stomach was prepared. The lumen of the loop was perfused with physiological saline saturated with 100% O2 gas (flow rate: 1 ml/min)
(§2) A drug was administered into the gastric or duodenal lumen after the bicarbonate secretion at the baseline had been measured for 30 minutes, and the bicarbonate secretion amount was measured every 10 minutes.
The abdomens of male SD rats were opened under anesthesia, and a duodenum loop having a length of 1.7 cm from the pyloric ring of the stomach was prepared. The lumen of the loop was perfused with physiological saline saturated with 100% O2 gas (flow rate: 1 ml/min).
After the bicarbonate secretion at the baseline had been measured for 30 minutes, distilled water for injection containing γ-EVG (100 mg/kg) or distilled water for injection (normal) was administered into the duodenal lumen, and the bicarbonate secretion amount was measured every 10 minutes.

stomach = assay: Bicarbonate secretion in the stomach of anesthetized rats (ex-vivo chamber, pH-stat method); design: species or system male SD rats; conditions: 10 mg/kg administered into the gastric lumen; omeprazole 60 mg/kg i.p. to inhibit acid secretion
Method: as §1
The bicarbonate secretion in the stomach was measured as described below. The abdomen of each of male SD rats was opened in the midline under anesthesia with urethane (1.25 g/kg/5 ml, intraperitoneal administration) to expose the stomach. The stomach was left to stand still in an ex-vivo chamber (Tamura Seisakusho; 3.1 cm^2) and perfused with physiological saline saturated with 100% O2 gas. In order to inhibit acid secretion, 60 mg/kg omeprazole was intraperitoneally administered. The bicarbonate secretion was continuously measured by dropping 2 mM HCl to a perfusate until an end point of pH 7.0 by employing a pH-stat method (TOA, AUT-501).
as §2

[1] = test system: histamine-induced gastric acid secretion; assay: Histamine-induced gastric acid secretion in the removed, perfused stomach (pH-stat method); design: species or system male ddY mice; conditions: for histamine-induced gastric acid secretion: 100 μM histamine
Method: A model prepared in accordance with the method reported by Horie et al. (British Journal of Pharmacology 1994; 112: 87-92) was used as a model for histamine-induced gastric acid secretion. That is, 6-week-old male ddY mice were fasted for 18 hours, and the stomach was removed from each of the mice under anesthesia with urethane (1.25 g/kg/10 ml, intraperitoneal administration). A polyethylene cannula was inserted at each of the pyloric and esophageal sides of the stomach, and the stomach was left to stand still in an organ bath filled with a buffer (118.1 mM NaCl, 4.8 mM KCl, 1.0 mM KH2PO4, 16.0 mM Na2HPO4, 1.2 mM MgSO4, 0.65 mM CaCl2, and 31.6 mM glucose, saturated with 95% O2/5% CO2 gas, 37° C.). The intragastric pressure was kept at 15 cmH2O, and the lumen of the stomach was perfused with a buffer (135.8 mM NaCl, 4.8 mM KCl, 1.2 mM MgSO4, 1.3 mM CaCl2, and 31.6 mM glucose, pH 5.4, saturated with 95% O2/5% CO2 gas, 37° C.) at a flow rate of 1 ml/min
The acid secretion amount was continuously measured by dropping 10 mM NaOH to a perfusate until an end point of pH 5.4 by employing a pH-stat method (TOA, AUT-501). The intragastric acid secretion amount during no stimulation was measured for 30 minutes, and then the remove stomach left to stand still in the organ bath was treated with 100 μM histamine and cinacalcet (1.26, 12.6, and 126 μM). The gastric acid secretion amount was titrated for up to 90 minutes. The Dunnett's test was used as a statistical test for an effect of cinacalcet.
The gastric acid secretion was measured in accordance with the method of Example 2.

C[C@@H](NCCCc1cccc(C(F)(F)F)c1)c1cccc2ccccc12.Cl [cinacalcet, (R)—N-(3-(3-trifluoromethylphenyl)propyl)-1-(1-naphthyl)ethylamine hydrochloride]
somatostatin secretion (gastric mucosal D cells; 20 μM): remarkably promoted
damaged area in the small intestine (NSAID-induced enteritis; 1, 3, 10 and 100 mg/kg oral): reduced the damaged area dose-dependently
bicarbonate secretion in the duodenum (duodenum; 10 mg/kg administered into the duodenal lumen): promoted
bicarbonate secretion in the stomach (stomach): promoted
histamine-induced gastric acid secretion ([1]; 12.6 μM cinacalcet): inhibited
histamine-induced gastric acid secretion ([1]; cinacalcet 1.26, 12.6 and 126 μM): inhibited histamine-induced gastric acid secretion dose-dependently
histamine-induced gastric acid secretion ([1]; concentration of 126 μM): completely inhibited

N[C@@H](Cc1c[nH]cn1)C(=O)O [His, histidine]
somatostatin secretion (gastric mucosal D cells; 10 mM): remarkably promoted

N[C@@H](CCC(=O)[O-])C(=O)[O-].[Na+].[Na+] [MSG, sodium glutamate]
somatostatin secretion (gastric mucosal D cells; 60 mM MSG): remarkably inhibited

NCCc1c[nH]cn1 [histamine]
gastric acid secretion ([1]; 100 μM histamine alone): promoted
acid secretion amount ([1]; 100 μM histamine stimulation, 0.5 to 0.8 nEq/10 min during no stimulation): about 3.2 nEq/10 min

N[C@@H](Cc1ccccc1)C(=O)O [Phe, phenylalanine]
somatostatin secretion (gastric mucosal D cells; 10 mM): remarkably promoted

[γGlu]-Val-Gly [γ-EVG]
somatostatin secretion (gastric mucosal D cells; 20 μM): remarkably promoted; also recorded: markedly promoted
damaged area in the small intestine (NSAID-induced enteritis; 100 mg/kg oral): reduced the damaged area
bicarbonate secretion in the duodenum (duodenum; 100 mg/kg administered into the duodenal lumen): promoted

— patent US20110071075A1, “PROMOTER FOR BICARBONATE SECRETION IN GASTROINTESTINAL TRACT” (priority 2008, published 2011)
